Data: ChEMBL document CHEMBL4138146, “A Schmidt rearrangement-mediated synthesis of novel tetrahydro-benzo[1,4]diazepin-5-ones as potential anticancer and antiprotozoal agents” (Eur J Med Chem, 2017)

Assays:
Assay type in all cases: functional
A549 = test: Growth inhibition of human A549/ATCC cells assessed as cell growth at 10^-8 M incubated for 48 hrs by sulforhodamine B assay relative to control; details: A549, 48 h, read-out: Activity
EKVX [1] = test: Growth inhibition of human EKVX cells assessed as cell growth at 10^-8 M incubated for 48 hrs by sulforhodamine B assay relative to control; details: read-out: Activity
SNB-19 = test: Growth inhibition of human SNB19 cells assessed as cell growth at 10^-8 M incubated for 48 hrs by sulforhodamine B assay relative to control; details: SNB-19, 48 h, read-out: Activity
SNB-75 = test: Growth inhibition of human SNB75 cells assessed as cell growth at 10^-8 M incubated for 48 hrs by sulforhodamine B assay relative to control; details: SNB-75, 48 h, read-out: Activity
SK-MEL-2 = test: Growth inhibition of human SK-MEL-2 cells assessed as cell growth at 10^-8 M incubated for 48 hrs by sulforhodamine B assay relative to control; details: SK-MEL-2, 48 h, read-out: Activity
UACC-257 [2] = test: Growth inhibition of human UACC257 cells assessed as cell growth at 10^-8 M incubated for 48 hrs by sulforhodamine B assay relative to control; details: UACC-257, 48 h, read-out: Activity
OVCAR-3 [3] = test: Growth inhibition of human OVCAR3 cells assessed as cell growth at 10^-8 M incubated for 48 hrs by sulforhodamine B assay relative to control; details: OVCAR-3, 48 h, read-out: Activity
786-0 = test: Growth inhibition of human 786-0 cells assessed as cell growth at 10^-8 M incubated for 48 hrs by sulforhodamine B assay relative to control; details: 786-0, 48 h, read-out: Activity
ACHN [4] = test: Growth inhibition of human ACHN cells assessed as cell growth at 10^-8 M incubated for 48 hrs by sulforhodamine B assay relative to control; details: read-out: Activity
RXF 393 = test: Growth inhibition of human RXF393 cells assessed as cell growth at 10^-8 M incubated for 48 hrs by sulforhodamine B assay relative to control; details: RXF 393, 48 h, read-out: Activity
MOLT-4 = test: Growth inhibition of human MOLT4 cells assessed as cell growth at 10^-7 M incubated for 48 hrs by sulforhodamine B assay relative to control; details: MOLT-4, 48 h, read-out: Activity
HT-29 [5] = test: Growth inhibition of human HT-29 cells assessed as cell growth at 10^-7 M incubated for 48 hrs by sulforhodamine B assay relative to control; details: HT-29, 48 h, read-out: Activity
SW-620 [6] = test: Growth inhibition of human SW620 cells assessed as cell growth at 10^-7 M incubated for 48 hrs by sulforhodamine B assay relative to control; details: SW-620, 48 h, read-out: Activity
LOX IMVI = test: Growth inhibition of human LOXIMVI cells assessed as cell growth at 10^-7 M incubated for 48 hrs by sulforhodamine B assay relative to control; details: read-out: Activity
Malme-3M = test: Growth inhibition of human MALME-3M cells assessed as cell growth at 10^-7 M incubated for 48 hrs by sulforhodamine B assay relative to control; details: read-out: Activity
HCC 2998 = test: Growth inhibition of human HCC2998 cells assessed as cell growth at 10^-6 M incubated for 48 hrs by sulforhodamine B assay relative to control; details: HCC 2998, 48 h, read-out: Activity
HT-29 [7] = test: Growth inhibition of human HT-29 cells assessed as cell growth at 10^-6 M incubated for 48 hrs by sulforhodamine B assay relative to control; details: HT-29, 48 h, read-out: Activity
M14 = test: Growth inhibition of human M14 cells assessed as cell growth at 10^-6 M incubated for 48 hrs by sulforhodamine B assay relative to control; details: M14, 48 h, read-out: Activity
CAKI-1 = test: Growth inhibition of human Caki1 cells assessed as cell growth at 10^-6 M incubated for 48 hrs by sulforhodamine B assay relative to control; details: CAKI-1, 48 h, read-out: Activity
Hs-578T = test: Growth inhibition of human Hs 578T cells assessed as cell growth at 10^-6 M incubated for 48 hrs by sulforhodamine B assay relative to control; details: read-out: Activity
HOP-92 = test: Growth inhibition of human HOP92 cells assessed as cell growth at 10^-5 M incubated for 48 hrs by sulforhodamine B assay relative to control; details: HOP-92, 48 h, read-out: Activity
NCI-H322M = test: Growth inhibition of human NCI-H322M cells assessed as cell growth at 10^-5 M incubated for 48 hrs by sulforhodamine B assay relative to control; details: read-out: Activity
OVCAR-3 [8] = test: Growth inhibition of human OVCAR3 cells assessed as cell growth at 10^-5 M incubated for 48 hrs by sulforhodamine B assay relative to control; details: OVCAR-3, 48 h, read-out: Activity
A498 = test: Growth inhibition of human A498 cells assessed as cell growth at 10^-5 M incubated for 48 hrs by sulforhodamine B assay relative to control; details: A498, 48 h, read-out: Activity
ACHN [9] = test: Growth inhibition of human ACHN cells assessed as cell growth at 10^-5 M incubated for 48 hrs by sulforhodamine B assay relative to control; details: read-out: Activity
MCF7 = test: Growth inhibition of human MCF7 cells assessed as cell growth at 10^-5 M incubated for 48 hrs by sulforhodamine B assay relative to control; details: MCF7, 48 h, read-out: Activity
EKVX [10] = test: Growth inhibition of human EKVX cells assessed as cell growth at 10^-4 M incubated for 48 hrs by sulforhodamine B assay relative to control; details: read-out: Activity
NCI-H23 = test: Growth inhibition of human NCI-H23 cells assessed as cell growth at 10^-4 M incubated for 48 hrs by sulforhodamine B assay relative to control; details: NCI-H23, 48 h, read-out: Activity
SW-620 [11] = test: Growth inhibition of human SW620 cells assessed as cell growth at 10^-4 M incubated for 48 hrs by sulforhodamine B assay relative to control; details: SW-620, 48 h, read-out: Activity
SF-268 = test: Growth inhibition of human SF268 cells assessed as cell growth at 10^-4 M incubated for 48 hrs by sulforhodamine B assay relative to control; details: SF-268, 48 h, read-out: Activity
MDA-MB-435 = test: Growth inhibition of human MDA-MB-435 cells assessed as cell growth at 10^-4 M incubated for 48 hrs by sulforhodamine B assay relative to control; details: MDA-MB-435, 48 h, read-out: Activity
UACC-257 [12] = test: Growth inhibition of human UACC257 cells assessed as cell growth at 10^-4 M incubated for 48 hrs by sulforhodamine B assay relative to control; details: UACC-257, 48 h, read-out: Activity
ACHN [13] = test: Growth inhibition of human ACHN cells assessed as cell growth at 10^-4 M incubated for 48 hrs by sulforhodamine B assay relative to control; details: read-out: Activity
DU-145 = test: Growth inhibition of human DU145 cells assessed as cell growth at 10^-4 M incubated for 48 hrs by sulforhodamine B assay relative to control; details: DU-145, 48 h, read-out: Activity

SMILES: CCCCOc1nc2ccccc2cc1C1CNC(=O)c2ccccc2N1 (centres undefined)
- growth at 0.01 µM (A549): 100%
- growth at 0.01 µM (EKVX [1]): 90%
- growth at 0.01 µM (SNB-19): 96%
- growth at 0.01 µM (SNB-75): 73%
- growth at 0.01 µM (SK-MEL-2): 96%
- growth at 0.01 µM (UACC-257 [2]): 97%
- growth at 0.01 µM (OVCAR-3 [3]): 100%
- growth at 0.01 µM (786-0): 99%
- growth at 0.01 µM (ACHN [4]): 103%
- growth at 0.01 µM (RXF 393): 100%
- growth at 0.1 µM (MOLT-4): 94%
- growth at 0.1 µM (HT-29 [5]): 98%
- growth at 0.1 µM (SW-620 [6]): 96%
- growth at 0.1 µM (LOX IMVI): 93%
- growth at 0.1 µM (Malme-3M): 92%
- growth at 1 µM (HCC 2998): 93%
- growth at 1 µM (HT-29 [7]): 98%
- growth at 1 µM (M14): 61%
- growth at 1 µM (CAKI-1): 70%
- growth at 1 µM (Hs-578T): 73%
- growth at 10 µM (HOP-92): 21%
- growth at 10 µM (NCI-H322M): 31%
- growth at 10 µM (OVCAR-3 [8]): -53%
- growth at 10 µM (A498): -21%
- growth at 10 µM (ACHN [9]): 22%
- growth at 10 µM (MCF7): 11%
- growth at 100 µM (EKVX [10]): -3%
- growth at 100 µM (NCI-H23): -26%
- growth at 100 µM (SW-620 [11]): -24%
- growth at 100 µM (SF-268): 1%
- growth at 100 µM (MDA-MB-435): -74%
- growth at 100 µM (UACC-257 [12]): 6%
- growth at 100 µM (ACHN [13]): -71%
- growth at 100 µM (DU-145): -43%
